# Measured values: patent publication US9930890B2 (priority 2010, dated 2018)
# Experiments:
# [1] = test system: Plasmopara viticola; assay: Plasmopara test (grapevine)/protective; type: in vivo; settings: grapevine young plants, protective spray, active ingredient concentration 10 ppm, evaluation 6 days after inoculation; 0% = control, 100% = no infection
# Procedure: Plasmopara Test (Grapevine)/Protective
# To produce an appropriate active ingredient formulation, 1 part by weight of active ingredient is mixed with the specified amounts of solvent and emulsifier, and the concentrate is diluted with water to the desired concentration.
# To test for protective efficacy, young plants are sprayed with the active ingredient formulation at the stated application rate. After the spray coating has dried on, the plants are inoculated with an aqueous spore suspension of Plasmopara viticola and then remain in an incubation cabin at approx. 20° C. and 100% relative air humidity for 1 day. Subsequently, the plants are placed in a greenhouse at approx. 21° C. and approx. 90% air humidity for 4 days. The plants are then moistened and placed in an incubation cabin for 1 day.
# Evaluation follows 6 days after the inoculation. 0% means an efficacy which corresponds to that of the control, whereas an efficacy of 100% means that no infection is observed.
# In this test, the following inventive compounds show, at an active ingredient concentration of 10 ppm, an efficacy of 70% or more: […]
# [2] = test system: Phytophthora infestans; type: in vivo; settings: tomato plants, protective spray, active ingredient concentration 100 ppm, evaluation 7 days after inoculation; 0% = control, 100% = no infection
# [3] = for logp [a]: pH 2.7; for logp [b]: pH 7.8
smiles,measurement,setting,value
CON=C(C)c1cccc(C2CC(c3csc(C4CCN(C(=O)Cn5nc(C(F)(F)F)cc5C)CC4)n3)=NO2)c1 (mixture of isomers) [I-3],Eff. %,[1],97%
same,Eff. %,[2],100%
same,logp [a],[3],3.7[a]
CCON=C(C)c1cccc(C2CC(c3csc(C4CCN(C(=O)Cn5nc(C(F)F)cc5C(F)F)CC4)n3)=NO2)c1 (mixture of isomers) [I-5],Eff. %,[1],87%
same,Eff. %,[2],100%
CC(=NO)c1cccc(C2CC(c3csc(C4CCN(C(=O)Cn5nc(C(F)(F)F)cc5C)CC4)n3)=NO2)c1 (mixture of isomers) [I-7],Eff. %,[1],100%
same,Eff. %,[2],100%
same,logp [a],[3],2.8[a]
Cc1cc(C(F)(F)F)nn1CC(=O)N1CCC(c2nc(C3=NOC(c4cccc(C=NO)c4)C3)cs2)CC1 (mixture of isomers) [I-10],Eff. %,[1],92%
same,Eff. %,[2],100%
Cc1ccc(Cl)cc1NC(=O)N1CCC(c2nc(C3=NOC(c4cccc(C=NO)c4)C3)cs2)CC1 (mixture of isomers) [I-14],Eff. %,[1],100%
same,Eff. %,[2],100%
CON=Cc1cccc(C2CC(c3csc(C4CCN(C(=O)Cn5nc(C(F)(F)F)cc5C)CC4)n3)=NO2)c1 (mixture of isomers) [I-15],Eff. %,[1],81%
same,Eff. %,[2],100%
CON=Cc1cccc(C2CC(c3csc(C4CCN(C(=O)Cn5nc(C(F)F)cc5C(F)F)CC4)n3)=NO2)c1 (mixture of isomers) [I-16],Eff. %,[1],94%
CC(=NO)c1cccc(C2CC(c3csc(C4CCN(C(=O)Cn5nc(C(F)F)cc5C(F)F)CC4)n3)=NO2)c1 (mixture of isomers) [I-18],Eff. %,[1],100%
same,Eff. %,[2],100%
CON=Cc1cccc(C2CC(c3csc(C4CCN(C(=O)Nc5cc(Cl)ccc5C)CC4)n3)=NO2)c1 (mixture of isomers) [I-19],Eff. %,[1],100%
same,Eff. %,[2],100%
CON=C(C)c1cccc(C2CC(c3csc(C4CCN(C(=O)Cn5nc(C(F)F)cc5C(F)F)CC4)n3)=NO2)c1 (mixture of isomers) [I-21],Eff. %,[1],100%
same,Eff. %,[2],100%
O=C(Cn1nc(C(F)F)cc1C(F)F)N1CCC(c2nc(C3=NOC(c4cccc(C=NO)c4)C3)cs2)CC1 (mixture of isomers) [I-22],Eff. %,[1],100%
same,Eff. %,[2],100%
CON=C(C)c1cccc(C2CC(c3csc(C4CCN(C(=O)Nc5cc(Cl)ccc5C)CC4)n3)=NO2)c1 (mixture of isomers) [I-23],Eff. %,[1],98%
same,Eff. %,[2],100%
CCON=Cc1ccccc1C1CC(c2csc(C3CCN(C(=O)Cn4nc(C(F)F)cc4C(F)F)CC3)n2)=NO1 (mixture of isomers) [I-27],Eff. %,[1],99%
same,Eff. %,[2],100%
CCON=Cc1ccccc1C1CC(c2csc(C3CCN(C(=O)Cn4nc(C(F)(F)F)cc4C)CC3)n2)=NO1 (mixture of isomers) [I-29],Eff. %,[1],90%
same,Eff. %,[2],100%
same,logp [a],[3],4[a]
CON=C(C)c1ccccc1C1CC(c2csc(C3CCN(C(=O)Cn4nc(C(F)(F)F)cc4C)CC3)n2)=NO1 (mixture of isomers) [I-31],Eff. %,[1],97%
same,Eff. %,[2],100%
CON=C(C)c1ccccc1C1CC(c2csc(C3CCN(C(=O)Cn4nc(C(F)F)cc4C(F)F)CC3)n2)=NO1 (mixture of isomers) [I-32],Eff. %,[1],85%
same,Eff. %,[2],100%
CON=Cc1ccccc1C1CC(c2csc(C3CCN(C(=O)Cn4nc(C(F)(F)F)cc4C)CC3)n2)=NO1 (mixture of isomers) [I-34],Eff. %,[1],87%
same,Eff. %,[2],100%
same,logp [a],[3],3.7[a]
O=C(Cn1nc(C(F)F)cc1C(F)F)N1CCC(c2nc(C3=NOC(c4ccccc4C=NO)C3)cs2)CC1 (mixture of isomers) [I-35],Eff. %,[1],100%
same,Eff. %,[2],95%
Cc1ccc(Cl)cc1NC(=O)N1CCC(c2nc(C3=NOC(c4ccccc4C=NO)C3)cs2)CC1 (mixture of isomers) [I-36],Eff. %,[1],100%
same,Eff. %,[2],100%
CC(=O)Nc1ccc(C2CC(c3csc(C4CCN(C(=O)Cn5nc(C(F)F)cc5C(F)F)CC4)n3)=NO2)cc1 (racemic) [I-25],Eff. %,[1],97%
same,logp [a],[3],"2.2[a],"
N#CCOc1cccc(Cl)c1C1CC(c2csc(C3CCN(C(=O)Cn4nc(C(F)F)cc4C(F)F)CC3)n2)=NO1 (stereo not shown) [I-75],Eff. %,[1],100%
same,logp [a],[3],"3.19[a],"
same,logp [b],[3],3.11[b]
CCS(=O)(=O)Oc1ccc(C2CC(c3csc(C4CCN(C(=O)Cn5nc(C(F)(F)F)cc5C)CC4)n3)=NO2)cc1 (stereo not shown) [I-97],Eff. %,[2],95%
same,logp [a],[3],"3.14[a],"
same,logp [b],[3],3.05[b]
Cc1cc(C(F)(F)F)nn1CC(=O)N1CCC(c2nc(C3=NOC(c4ccc(OS(=O)(=O)C5CC5)cc4)C3)cs2)CC1 (stereo not shown) [I-98],Eff. %,[2],95%
same,logp [a],[3],"3.22[a],"
same,logp [b],[3],3.13[b]
CCS(=O)(=O)Oc1cccc(C2CC(c3csc(C4CCN(C(=O)Cn5nc(C(F)(F)F)cc5C)CC4)n3)=NO2)c1 (stereo not shown) [I-99],Eff. %,[2],100%
same,logp [a],[3],"3.18[a],"
same,logp [b],[3],3.08[b]
COCCSCc1ccccc1C1CC(c2csc(C3CCN(C(=O)Cn4nc(C(F)F)cc4C(F)F)CC3)n2)=NO1 (stereo not shown) [I-100],Eff. %,[2],100%
same,logp [a],[3],3.5[a]
Cc1cc(C(F)(F)F)nn1CC(=O)N1CCC(c2nc(C3=NOC(c4cccc(OS(=O)(=O)C5CC5)c4)C3)cs2)CC1 (stereo not shown) [I-101],Eff. %,[2],100%
same,logp [a],[3],"3.25[a],"
same,logp [b],[3],3.12[b]
C=CC(=O)Oc1ccccc1C1CC(c2csc(C3CCN(C(=O)Cn4nc(C(F)(F)F)cc4C)CC3)n2)=NO1 (stereo not shown) [I-104],Eff. %,[2],97%
same,logp [a],[3],"3.38[a],"
same,logp [b],[3],3.3[b]
O=C(Cn1nc(C(F)F)cc1C(F)F)N1CCC(c2nc(C3=NOC(c4ccccc4OC(=O)C4(Cl)CC4)C3)cs2)CC1 (stereo not shown) [I-107],Eff. %,[2],100%
same,logp [a],[3],"3.66[a],"
same,logp [b],[3],3.57[b]
Cc1cc(C(F)(F)F)nn1CC(=O)N1CCC(c2nc(C3=NOC(c4ccccc4NC=O)C3)cs2)CC1 (stereo not shown) [I-109],Eff. %,[2],100%
same,logp [a],[3],"2.49[a],"
same,logp [b],[3],2.39[b]
N#CCOc1cccc(C2CC(c3csc(C4CCN(C(=O)Cn5nc(C(F)F)cc5C(F)F)CC4)n3)=NO2)c1 (stereo not shown) [I-110],Eff. %,[2],100%
same,logp [a],[3],"2.95[a],"
same,logp [b],[3],2.88[b]
Cc1cc(C(F)(F)F)nn1CC(=O)N1CCC(c2nc(C3=NOC(c4cccc(F)c4OCC#N)C3)cs2)CC1 (stereo not shown) [I-111],Eff. %,[2],98%
same,logp [a],[3],"3.22[a],"
same,logp [b],[3],3.13[b]
O=C(O)c1ccccc1C1CC(c2csc(C3CCN(C(=O)Cn4nc(C(F)F)cc4C(F)F)CC3)n2)=NO1 (stereo not shown) [I-134],Eff. %,[2],93%
same,logp [a],[3],2.63[a]
CCNC(=O)Oc1ccccc1C1CC(c2csc(C3CCN(C(=O)Cn4nc(C(F)F)cc4C(F)F)CC3)n2)=NO1 (stereo not shown) [I-136],Eff. %,[2],93%
same,logp [a],[3],"2.84[a],"
same,logp [b],[3],2.81[b]
O=C(Cn1nc(C(F)F)cc1C(F)F)N1CCC(c2nc(C3=NOC(c4cccc(OCC#Cc5cccc6ccccc56)c4)C3)cs2)CC1 (stereo not shown) [I-137],Eff. %,[2],100%
same,logp [a],[3],"4.6[a],"
same,logp [b],[3],4.71[b]
C=CCOCc1ccccc1C1CC(c2csc(C3CCN(C(=O)Cn4nc(C(F)F)cc4C(F)F)CC3)n2)=NO1 (stereo not shown) [I-139],Eff. %,[2],80%
same,logp [a],[3],4.11[a]
